Like-named read-outs stand apart in the source and are kept apart here.
Columns and labels:
[1] = Headspace Method (dynamic headspace GC/MS), solution in isopropyl myristate (IPM); assay type: physicochemical; details: for Air/IPM partition coef (ng/mL in air per ng/mL in IPM) / Headspace: 30° C.; for Headspace: above IPM solution of about 2.1E+06 ng/mL
Experimental: (§1) Perfume headspace data is collected for various materials according to the method provided below.
(§2) The partition coefficients are calculated by determining the amount of PRM in the headspace above a solution with a known concentration using a GC/FID-MS (Agilent 7890 and 5977A MSD) with a thermal desorption unit (Gerstel MPS2) and Dynamic Headspace Sampler (Gerstel DHS). This technique allows for automated headspace collections using the MultiPurposeSampler (MPS). The PRMs of interest are prepared at a known concentration in isopropyl myristate (IPM) or propylene glycol monomethyl ether (DPM), and 1 mL is pipetted in a 20 mL headspace vial.
(§3) DHS Conditions: The sample is tempered in the unit at 30° C. A helium stream at 10 mls/min purges 20 mL of headspace containing the analytes above the sample onto the sorbent tube (TDU) containing 25 mg of TenaxTA 35/60 (Restek cat #25701).
(§4) TDU conditions: The sorbent tube is desorbed with a program starting at 30° C. solvent vent for 2 min then ramped at 720° C./min to 270° C. and held for 8 min. The analytes are refocused on a glass bead liner at −60° C. then desorbed at a rate of 12° C./s to 270° C. onto the GC column.
(§5) GC/MS conditions: Agilent 122-5532UI column of 30 m×250 μm×0.25 μm and a flow rate of 1.5mL/min is utilized. A temperature program of 50° C. to 280° C. with a 2 min hold and a ramp rate of 12° C./min is suitable. Scan or SIM mode MSD parameters with a solvent delay for the DPM are applied to achieve appropriate detection.
(§6) Analytical standards can be obtained from Sigma Aldrich, St. Louis, MO and BioSynth, UK. A stock solution is prepared at approximately 0.5 g/L. The stock solution is then diluted to 4 to 5 concentrations ranging from approximately 0.05 g/L to 0.00005 g/L. These standard solutions are then analyzed by GC/MS. This analysis is performed by using the same TDU desorption and GC/MS conditions described above with a 1 uL liquid injection onto the TDU tube instead of the DHS collection. The amount injected on column and the area responses of the target m/z are utilized to create a calibration plot with a linear fit.
(§7) Quantification of the headspace is performed by the PRM target m/z area response of the perfume component and the linear equation of the calibration plot.
(§8) Perfume headspace data is collected for various materials according to the Headspace Method provided above in the Test Methods section. The Air/Solvent partition coefficients are determined and indexed accordingly (e.g., where the partition coefficient for ethylvanillin is set at 1.00).

[2] = Headspace Method (dynamic headspace GC/MS), solution in propylene glycol monomethyl ether (DPM); assay type: physicochemical; details: for Air/DPM partition coef (ng/mL in air per ng/mL in DPM) / Headspace: 30° C.; for Headspace: above DPM solution of 1.1E+07 ng/mL
Experimental: as §1, §2, §3, §4, §5, §6, §7, §8

CCOc1cc(C=O)ccc1O [Ethylvanillin]
Air/IPM partition coef (ng/mL in air per ng/mL in IPM) ([1]; average of two replicates): 1.95E−08 ng/mL in air per ng/mL in IPM | Headspace ([1]; average of two replicates): 0.0402 ng/mL | Ethylvanillin Indexed Air/IPM partition coefficient ([1]; partition coefficient for ethylvanillin set at 1.00, average of two replicates): 1.00 | Air/DPM partition coef (ng/mL in air per ng/mL in DPM) ([2]; average of three replicates): 2.45E−09 ng/mL in air per ng/mL in DPM | Headspace ([2]; average of three replicates): 0.0262 ng/mL | Ethylvanillin Indexed Air/DPM partition coefficient ([2]; partition coefficient for ethylvanillin set at 1.00, average of three replicates): 1.00

COc1cc(C=O)ccc1O [Vanillin]
Ethylvanillin Indexed Air/IPM partition coefficient [1]: 1.40 | Air/IPM partition coef (ng/mL in air per ng/mL in IPM) ([1]; average of two replicates): 2.73E−08 ng/mL in air per ng/mL in IPM | Headspace ([1]; average of two replicates): 0.0563 ng/mL | Air/DPM partition coef (ng/mL in air per ng/mL in DPM) ([2]; average of three replicates): 1.21E−08 ng/mL in air per ng/mL in DPM | Headspace ([2]; average of three replicates): 0.1288 ng/mL

CCOc1cccc(C=O)c1O [ortho-Ethylvanillin, 2-hydroxy-3-ethoxybenzaldehyde]
Air/IPM partition coef (ng/mL in air per ng/mL in IPM) ([1]; average of two replicates): 1.21E−07 ng/mL in air per ng/mL in IPM | Headspace ([1]; average of two replicates): 0.2521 ng/mL | goes into the headspace more than its structural isomer ethylvanillin ([1]; out of IPM): about 6.2 × | Air/DPM partition coef (ng/mL in air per ng/mL in DPM) ([2]; average of three replicates): 2.31E−07 ng/mL in air per ng/mL in DPM | Headspace ([2]; average of three replicates): 2.4678 ng/mL | goes into the headspace more than ethylvanillin ([2]; out of DPM): about 94 ×

From US20240199997A1, “COMPOSITIONS COMPRISING A META-(C1-C4 ALKOXY) […]” (The Procter & Gamble Company, priority 2022, published 2024)
